Data from PMC4584354, “Synthesis and Antiplasmodial Evaluation of Analogues Based on the Tricyclic Core of Thiaplakortones A–D” (Marine Drugs, 2015).
Like-named read-outs stand apart in the source and are kept apart here.

Key:
[1] = design: method as in PMID 25490858; details: administered subcutaneously to mice; remained above this level for 8 h; cited from earlier work
[2] = design: method as in PMID 25490858; details: cited from earlier work
[3] = design: method as in PMID 25490858; details: cited from earlier work; remark: listed apart in the source
[4] = design: method as in PMID 25490858; details: subcutaneous 32 mg/kg twice daily for 4 d; cited from earlier work
blood stage P. berghei = system: blood stage P. berghei; design: method as in PMID 25490858; details: mice, subcutaneous 32 mg/kg twice daily for 4 d; cited from earlier work
[5] = system: P. falciparum multidrug-resistant line (Dd2); test: P. falciparum growth inhibition assay ([3H]-hypoxanthine isotopic microtest), Dd2 line; format: cell-based; details: Plasmodium falciparum, read-out: Mean IC50 ± SD, Dd2
Protocol: (§1) P. falciparum growth inhibition assays were carried out using an isotopic microtest, as previously described [16]. […] The final concentration of DMSO vehicle was <0.5% in all assay wells (non-toxic). After 48 h cells were harvested onto 1450 MicroBeta filter mats (PerkinElmer, Waltham, Massachusetts, USA) and [^3H] incorporation determined using a 1450 MicroBeta liquid scintillation counter. Percentage inhibition of growth compared to matched DMSO controls was determined and IC50 values were calculated using linear interpolation of inhibition curves [17]. The mean IC50 or % inhibition (±SD) was calculated for three independent experiments, each carried out in triplicate.

[6] = system: P. falciparum chloroquine-sensitive line (3D7); test: P. falciparum growth inhibition assay ([3H]-hypoxanthine isotopic microtest), 3D7 line; format: cell-based, Plasmodium falciparum; details: for IC50: Plasmodium falciparum, read-out: Mean IC50 ± SD, 3D7; for increase in 3D7 activity on exchanging saturated system (13, 14) for unsaturated motif: 15 vs 13, 16 vs 14
Protocol: as §1

[7] = system: neonatal foreskin fibroblast (NFF) cells; test: Mammalian toxicity using human neonatal foreskin fibroblast cells; format: cell-based; details: for IC50: Homo sapiens, NFF, read-out: Mean IC50 ± SD, NFF; for SI (selectivity index = NFF cell-line IC50/P. falciparum IC50): range over 3D7 and Dd2 lines
Plasmodium falciparum = test: In vitro P. falciparum growth inhibition (line not given); format: cell-based; details: 3D7 and Dd2 lines
[8] = system: P. falciparum multidrug-resistant line (Dd2); design: method as in PMID 24032556; details: read-out: in vitro IC50, Dd2; cited from earlier work
[9] = system: P. falciparum chloroquine-sensitive line (3D7); design: method as in PMID 24032556; details: chloroquine-sensitive (3D7) P. falciparum line; read-out: in vitro IC50, 3D7; cited from earlier work
[10] = P. falciparum multidrug-resistant line Dd2, 48 h, three independent experiments in triplicate
[11] = P. falciparum chloroquine-sensitive line 3D7, 48 h, three independent experiments in triplicate
[12] = neonatal foreskin fibroblast cells

Row | IC50 [5, 10] [nM] | IC50 [6, 11] [nM] | SMILES | IC50 [7, 12] [µM] | SI (selectivity index = NFF cell-line IC50/P. falciparum IC50) [7] | further results
1 |  |  | CCCCNC(=O)NCCc1c[nH]c2c1C(=O)C1=C(NC=CS1(=O)=O)C2=O [Compound 9] |  |  | plasma concentration [1]: > 0.2 µM; solubility [2]: good; metabolic stability [3]: good; tolerability in mice [4]: well tolerated; suppression of blood stage P. berghei parasitemia relative to controls (blood stage P. berghei): 26%
2 | 607 ± 158 | 834 ± 89 | Cc1ccc(S(=O)(=O)n2ccc3c2C(=O)C2=C(C3=O)S(=O)(=O)CCN2)cc1 [Compound 12] | 19 | 22.8–31.3 | 
3 | 3700 ± 500 | 6900 ± 700 | O=C1C2=C(NCCS2(=O)=O)C(=O)c2[nH]ccc21 [Compound 14] | 69.6 | 10.1–18.8 | 
4 | 129 ± 3.9 | 313 ± 84 | O=C1C2=C(C(=O)c3[nH]ccc31)S(=O)(=O)C=CN2 [Compound 15] | 2.8 ± 0.4 | 8.9–21.7 | increase in 3D7 activity on exchanging saturated system (13, 14) for unsaturated motif [6]: 23.9 fold
5 |  |  | CC(=O)NCCc1c[nH]c2c1C(=O)C1=C(NC=CS1(=O)=O)C2=O [Compound 8] |  |  | plasma concentration [1]: > 0.2 µM; solubility [2]: good; metabolic stability [3]: good; tolerability in mice [4]: well tolerated; suppression of blood stage P. berghei parasitemia relative to controls (blood stage P. berghei): 52%
6 | 11100 | 18200 | Cc1ccc(S(=O)(=O)n2ccc3c2C(=O)C=CC3=O)cc1 [Compound 10, 1-tosyl-1H-indole-4,7-dione] | 7.6 ± 1.2 | 0.4–0.7 | antiplasmodial activity (Plasmodium falciparum): essentially inactive
7 | 127 ± 8.6 | 252 ± 35 | O=C1C2=C(NC=CS2(=O)=O)C(=O)c2[nH]ccc21 [Compound 16] | 4.6 ± 0.8 | 18.2–36.2 | increase in 3D7 activity on exchanging saturated system (13, 14) for unsaturated motif [6]: 27.3 fold
8 |  |  | CCN(CC)CCCC(C)Nc1ccnc2cc(Cl)ccc12 (stereo not drawn) [CQ, chloroquine, reference compound] |  | 811.1–4679.5 | IC50 ([5]; DD2, 48 h): 45 ± 10 nM; IC50 ([6]; 3D7, 48 h): 7.8 ± 2.7 nM; IC50 [7]: 36.5 µM
9 | 509 ± 309 | 546 ± 119 | Cc1ccc(S(=O)(=O)n2ccc3c2C(=O)C2=C(NCCS2(=O)=O)C3=O)cc1 [Compound 11] | 1.4 ± 0.7 |  | 
10 | 11500 | 13500 | O=C1C=CC(=O)c2[nH]ccc21 [Compound 17, 1H-indole-4,7-dione] | 4.7 ± 0.1 | 0.3–0.4 | antiplasmodial activity (Plasmodium falciparum): essentially inactive
11 |  |  | NCCc1c[nH]c2c1C(=O)C1=C(NC=CS1(=O)=O)C2=O [Thiaplakortone A, thiaplakortone A] |  |  | IC50 [8]: 6.6 nM; IC50 [9]: 51 nM
12 | 3800 ± 400 | 7500 ± 900 | O=C1C2=C(C(=O)c3[nH]ccc31)S(=O)(=O)CCN2 [Compound 13] | 39 | 5.2–10.3 | 
